Measured values as given in ChEMBL document CHEMBL1150587, “Evaluation of the potential cancer chemotherapeutic efficacy of natural product isolates employing in vivo hollow fiber tests” (J Nat Prod, 2002).
The source made the active and inactive calls. The calls are words filed in the database; no cut-off is given here.

What was measured:
KB [1] = assay: Growth inhibition of human KB cells implanted subcutaneously to NCr nu/nu mouse at 72.6 to 290.7 umol/kg, ip administered from day 3 to 6 after implantation measured on day 7 by MTT-based hollow-fiber test; type: functional
MCF7 [2] = assay: Growth inhibition of human MCF7 cells implanted subcutaneously to NCr nu/nu mouse at 72.6 to 290.7 umol/kg, ip administered from day 3 to 6 after implantation measured on day 7 by MTT-based hollow-fiber test; type: functional
P388 [3] = assay: Growth inhibition of mouse P388 cells implanted subcutaneously to NCr nu/nu mouse at 72.6 to 290.7 umol/kg, ip administered from day 3 to 6 after implantation measured on day 7 by MTT-based hollow-fiber test; type: functional
Mus musculus [4] = assay: Toxicity in tumor cell implanted NCr nu/nu mouse assessed as body weight change at 72.6 umol/kg, ip administered from day 3 to 6 after implantation measured on day 7; type: organism-based; conditions: in vivo
Mus musculus [5] = assay: Toxicity in tumor cell implanted NCr nu/nu mouse assessed as body weight change at 145.3 umol/kg, ip administered from day 3 to 6 after implantation measured on day 7; type: organism-based; conditions: in vivo
Mus musculus [6] = assay: Toxicity in tumor cell implanted NCr nu/nu mouse assessed as body weight change at 290.7 umol/kg, ip administered from day 3 to 6 after implantation measured on day 7; type: organism-based; conditions: in vivo
Lu1 [7] = assay: Growth inhibition of human Lu1 cells implanted intraperitoneally to NCr nu/nu mouse at 72.6 to 290.7 umol/kg, ip administered from day 3 to 6 after implantation measured on day 7 by MTT-based hollow-fiber test; type: functional
SW626 [8] = assay: Growth inhibition of human SW626 cells implanted intraperitoneally to NCr nu/nu mouse at 72.6 to 290.7 umol/kg, ip administered from day 3 to 6 after implantation measured on day 7 by MTT-based hollow-fiber test; type: functional
LNCaP [9] = assay: Growth inhibition of human LNCAP cells implanted intraperitoneally to NCr nu/nu mouse at 72.6 to 290.7 umol/kg, ip administered from day 3 to 6 after implantation measured on day 7 by MTT-based hollow-fiber test; type: functional
SK-MEL-2 [10] = assay: Growth inhibition of human SK-MEL-2 cells implanted intraperitoneally to NCr nu/nu mouse at 72.6 to 290.7 umol/kg, ip administered from day 3 to 6 after implantation measured on day 7 by MTT-based hollow-fiber test; type: functional
KB [11] = assay: Growth inhibition of human KB cells implanted intraperitoneally to NCr nu/nu mouse at 72.6 to 290.7 umol/kg, ip administered from day 3 to 6 after implantation measured on day 7 by MTT-based hollow-fiber test; type: functional
MCF7 [12] = assay: Growth inhibition of human MCF7 cells implanted intraperitoneally to NCr nu/nu mouse at 72.6 to 290.7 umol/kg, ip administered from day 3 to 6 after implantation measured on day 7 by MTT-based hollow-fiber test; type: functional
P388 [13] = assay: Growth inhibition of mouse P388 cells implanted intraperitoneally to NCr nu/nu mouse at 72.6 to 290.7 umol/kg, ip administered from day 3 to 6 after implantation measured on day 7 by MTT-based hollow-fiber test; type: functional
Lu1 [14] = assay: Growth inhibition of human Lu1 cells implanted subcutaneously to NCr nu/nu mouse at 72.6 to 290.7 umol/kg, ip administered from day 3 to 6 after implantation measured on day 7 by MTT-based hollow-fiber test; type: functional
SW626 [15] = assay: Growth inhibition of human SW626 cells implanted subcutaneously to NCr nu/nu mouse at 72.6 to 290.7 umol/kg, ip administered from day 3 to 6 after implantation measured on day 7 by MTT-based hollow-fiber test; type: functional
LNCaP [16] = assay: Growth inhibition of human LNCAP cells implanted subcutaneously to NCr nu/nu mouse at 72.6 to 290.7 umol/kg, ip administered from day 3 to 6 after implantation measured on day 7 by MTT-based hollow-fiber test; type: functional
SK-MEL-2 [17] = assay: Growth inhibition of human SK-MEL-2 cells implanted subcutaneously to NCr nu/nu mouse at 72.6 to 290.7 umol/kg, ip administered from day 3 to 6 after implantation measured on day 7 by MTT-based hollow-fiber test; type: functional
Mus musculus [18] = assay: Toxicity in NCr nu/nu mouse subcutaneously implanted with human KB cells assessed as mortality at 72.6 umol/kg, ip administered on day 10, 13, 16, 20 of implantation; type: organism-based; conditions: in vivo
Mus musculus [19] = assay: Toxicity in NCr nu/nu mouse subcutaneously implanted with human KB cells assessed as mortality at 145.3 umol/kg, ip administered on day 10, 13, 16, 20 of implantation; type: organism-based; conditions: in vivo
Mus musculus [20] = assay: Toxicity in NCr nu/nu mouse subcutaneously implanted with human KB cells assessed as mortality at 290.7 umol/kg, ip administered on day 10, 13, 16, 20 of implantation; type: organism-based; conditions: in vivo
Mus musculus [21] = assay: Toxicity in NCr nu/nu mouse subcutaneously implanted with human KB cells assessed as change in body weight at 72.6 umol/kg, ip administered on day 10, 13, 16, 20 of implantation; type: organism-based; conditions: in vivo
Mus musculus [22] = assay: Toxicity in NCr nu/nu mouse subcutaneously implanted with human KB cells assessed as change in body weight at 145.3 umol/kg, ip administered on day 10, 13, 16, 20 of implantation; type: organism-based; conditions: in vivo
Mus musculus [23] = assay: Toxicity in NCr nu/nu mouse subcutaneously implanted with human KB cells assessed as change in body weight at 290.7 umol/kg, ip administered on day 10, 13, 16, 20 of implantation; type: organism-based; conditions: in vivo
KB [24] = assay: Growth inhibition of human KB cells implanted subcutaneously to NCr nu/nu mouse assessed as tumor size at 72.6 to 290.7 umol/kg, ip administered on day 10, 13, 16, 20 of implantation; type: functional, organism-based
KB [25] = assay: Growth inhibition of ip dosed intraperitoneally implanted human KB cells to NCr nu/nu mouse administered from day 3 to 6 after implantation measured on day 7 by MTT-based hollow-fiber test; type: functional, organism-based
KB [26] = assay: Growth inhibition of ip dosed subcutaneously implanted human KB cells to NCr nu/nu mouse administered from day 3 to 6 after implantation measured on day 7 by MTT-based hollow-fiber test; type: functional, organism-based
SK-MEL-2 [27] = assay: Growth inhibition of ip dosed intraperitoneally implanted human SK-MEL-2 cells to NCr nu/nu mouse administered from day 3 to 6 after implantation measured on day 7 by MTT-based hollow-fiber test; type: functional, organism-based
SK-MEL-2 [28] = assay: Growth inhibition of ip dosed subcutaneously implanted human SK-MEL-2 cells to NCr nu/nu mouse administered from day 3 to 6 after implantation measured on day 7 by MTT-based hollow-fiber test; type: functional, organism-based
SK-MEL-2 [29] = assay: Cytotoxicity against human SK-MEL-2 cells after 72 hrs by SRB assay; type: functional, cell-based; conditions: SK-MEL-2, 72 h
P388 [30] = assay: Cytotoxicity against mouse P388 cells after 72 hrs by SRB assay; type: functional, cell-based; conditions: P388, 72 h
MCF7 [31] = assay: Cytotoxicity against human MCF7 cells after 72 hrs by SRB assay; conditions: MCF7, 72 h
LNCaP [32] = assay: Cytotoxicity against human LNCAP cells after 72 hrs by SRB assay; type: functional, cell-based
Lu1 [33] = assay: Cytotoxicity against human Lu1 cells after 72 hrs by SRB assay; type: functional, cell-based; conditions: Lu1, 72 h
[34] = Cytotoxicity against human KBV1 cells after 72 hrs by SRB assay; type: functional, cell-based; conditions: KB-V1, 72 h
KB [35] = assay: Cytotoxicity against human KB cells after 72 hrs by SRB assay; type: functional, cell-based
Col2 = assay: Cytotoxicity against human Col2 cells after 72 hrs by SRB assay; type: functional, cell-based; conditions: Col2, 72 h
[36] = Cytotoxicity against human BC1 cells after 72 hrs by SRB assay; conditions: BC1, 72 h
SW626 [37] = assay: Cytotoxicity against human SW626 cells after 72 hrs by SRB assay; type: functional, cell-based; conditions: SW626, 72 h
KB [38] = assay: Growth inhibition of human KB cells implanted intraperitoneally to NCr nu/nu mouse at 553.1 umol/kg, ip administered from day 3 to 6 after implantation measured on day 7 by MTT-based hollow-fiber test; type: functional
KB [39] = assay: Growth inhibition of human KB cells implanted subcutaneously to NCr nu/nu mouse at 553.1 umol/kg, ip administered from day 3 to 6 after implantation measured on day 7 by MTT-based hollow-fiber test; type: functional
Mus musculus [40] = assay: Toxicity in NCr nu/nu mouse subcutaneously implanted with human KB cells assessed as body weight change at 553.1 umol/kg, ip administered from day 3 to 6 after implantation measured on day 7; type: organism-based; conditions: in vivo
[41] = Inhibition of protein farnesyltransferase
P388 [42] = assay: Cytotoxicity against mouse P388 cells; type: functional, cell-based
Lu1 [43] = assay: Growth inhibition of human Lu1 cells implanted intraperitoneally to NCr nu/nu mouse at15.5 to 124 umol/kg, ip administered from day 3 to 6 after implantation measured on day 7 by MTT-based hollow-fiber test; type: functional
Lu1 [44] = assay: Growth inhibition of human Lu1 cells implanted subcutaneously to NCr nu/nu mouse at15.5 to 124 umol/kg, ip administered from day 3 to 6 after implantation measured on day 7 by MTT-based hollow-fiber test; type: functional
Mus musculus [45] = assay: Toxicity in NCr nu/nu mouse subcutaneously implanted with human Lu1 cells assessed as body weight change at 15.5 to 124 umol/kg, ip administered from day 3 to 6 after implantation measured on day 7; type: organism-based; conditions: in vivo
Mus musculus [46] = assay: Toxicity in human Lu1 cells implanted NCr nu/nu mouse at 516 umol/kg, ip administered from day 3 to 6 after implantation measured on day 7 by hollow-fiber test; type: organism-based; conditions: in vivo
Mus musculus [47] = assay: Toxicity in human Lu1 cells implanted NCr nu/nu mouse assessed as body weight loss at 252 umol/kg, ip administered from day 3 to 6 after implantation measured on day 7 by hollow-fiber test; type: organism-based; conditions: in vivo

Compound: C=C1C(=O)[C@@]23CC[C@@H]4[C@@]5(C)CCC[C@@]4(OC5=O)[C@@]2(C)CC[C@]1(OC)C3
- inhibition (INH) (KB [1]): 5.7%
- inhibition (INH) (MCF7 [2]): 0%
- inhibition (INH) (P388 [3]): 0%
- Activity (Mus musculus [4]): 0.74 g
- Activity (Mus musculus [5]): 0.03 g
- Activity (Mus musculus [6]): 0.85 g
- inhibition (INH) (Lu1 [7]): 0%
- inhibition (INH) (SW626 [8]): 0%
- inhibition (INH) (LNCaP [9]): 50.6%
- inhibition (INH) (SK-MEL-2 [10]): 15.5%
- inhibition (INH) (KB [11]): 21.6%
- inhibition (INH) (MCF7 [12]): 34.4%
- inhibition (INH) (P388 [13]): 0%
- inhibition (INH) (Lu1 [14]): 0%
- inhibition (INH) (SW626 [15]): 16.3%
- inhibition (INH) (LNCaP [16]): 0%
- inhibition (INH) (SK-MEL-2 [17]): 11.1%
- Activity (Mus musculus [18]): Non-toxic
- Activity (Mus musculus [19]): Non-toxic
- Activity (Mus musculus [20]): Non-toxic
- Activity (Mus musculus [21]): 7.9%
- Activity (Mus musculus [22]): 7.6%
- Activity (Mus musculus [23]): 6.6%
- Activity (KB [24]): Active
- Activity (KB [25]): Dose-dependent effect
- Activity (KB [26]): Dose-dependent effect
- Activity (SK-MEL-2 [27]): Dose-dependent effect
- Activity (SK-MEL-2 [28]): Dose-dependent effect
- IC50 (SK-MEL-2 [29]): 1.2 µM
- IC50 (P388 [30]): 0.3 µM
- IC50 (MCF7 [31]): 0.9 µM
- IC50 (LNCaP [32]): 1.2 µM
- IC50 (Lu1 [33]): 2 µM
- IC50 [34]: 5.2 µM
- IC50 (KB [35]): 6.4 µM
- IC50 (Col2): 3.8 µM
- IC50 [36]: 3.5 µM
- IC50 (SW626 [37]): 0.6 µM

Compound: C=C1C(=O)O[C@@H]2C[C@]3(C)CC[C@]4(C)[C@H](CC[C@@H]5[C@@]6(C)CCC(=O)C(C)(C)[C@@H]6CC[C@]54C)[C@H]3[C@H]12 [OCHRACEOLIDE A]
- inhibition in vivo at 553.1 µmol/kg (KB [38]): 0%
- inhibition in vivo at 553.1 µmol/kg (KB [39]): 0%
- Activity (Mus musculus [40]): 0.5 g
- IC50 [41]: 2.2 µM
- IC50 (P388 [42]): 0.58 µM
- IC50 (SK-MEL-2 [29]): 14.8 µM
- IC50 (P388 [30]): 3.5 µM
- IC50 (MCF7 [31]): 16.6 µM
- IC50 (LNCaP [32]): 13.1 µM
- IC50 (Lu1 [33]): 24.3 µM
- IC50 [34]: > 44.2 µM
- IC50 (KB [35]): 20.4 µM
- IC50 (Col2): 19.2 µM
- IC50 [36]: 32.3 µM
- IC50 (SW626 [37]): 35.4 µM

Compound: CC(O)c1cc2c(o1)C(=O)c1ccccc1C2=O (stereo not drawn)
- inhibition (INH) (Lu1 [43]): 0%
- inhibition (INH) (Lu1 [44]): 0%
- Activity (Mus musculus [45]): -0.4 g
- Activity (Mus musculus [46]): Toxic
- Activity (Mus musculus [47]): Toxic
- IC50 (SK-MEL-2 [29]): 1.2 µM
- IC50 (P388 [30]): 0.4 µM
- IC50 (MCF7 [31]): 2.5 µM
- IC50 (LNCaP [32]): 14.5 µM
- IC50 (Lu1 [33]): 0.8 µM
- IC50 [34]: 4.9 µM
- IC50 (KB [35]): 2.1 µM
- IC50 (Col2): 7.4 µM
- IC50 [36]: 13.2 µM
- IC50 (SW626 [37]): 1.2 µM
